Measured values published in patent US20230074545A1, “TREATMENT OF CANCER WITH CDK12/13 INHIBITORS” (Kinnate Biopharma Inc., priority 2019, published 2023).
Read-outs that look alike come from different tables or passages of the source.

Tests used:
[1] = tested on: RNA polymerase II; assay: Ex vivo RNA polymerase II phosphorylation (pS2/S2) in human PBMCs; assay type: cell-based; conditions: PBMC, hPBMCs, 2 hours
Description: (§1) The ability of the compounds to inhibit phosphorylation of peripheral blood mononuclear cells (PBMCs) was analyzed ex vivo. Compounds 1 and 4 were dosed at concentrations between 4 μM to 126.4 pM (0.5 log serial dilutions) for 2 hours. The amount of phosphorylated RNA polymerase II and the total amount of RNA polymerase II was analyzed. The values were normalized by taking the ratio of the phosphorylated RNA polymerase II to the total RNA polymerase II (pS2/S2).

[2] = tested on: OVCAR-3 cells; assay: OVCAR-3 cell proliferation (CellTiter-Glo); assay type: cell-based; conditions: Homo sapiens, read-out: Inhibition of proliferation of OVCAR3 cells (IC50 in M)
From the text: OVCAR-3 was used as the cell line to model for ovarian cancer in vitro and in vivo. This cell line was obtained from ATCC (Catalog #HTB-161) and is an adenocarcinoma line from the malignant ascites of a patient with progressive adenocarcinoma of the ovary and embodies a preclinical model of high-grade, serous ovarian cancer (HGSOC). OVCAR-3 has been deemed an appropriate model system in which to study drug resistance in ovarian cancer, and the presence of hormone receptors should be useful for the evaluation of hormonal therapy. OVCAR-3 is resistant to clinically relevant concentrations of adriamycin, melphalan and cisplatin.
(§2) Compounds 1-5 were tested at different concentrations (from 4 μM to 126.4 pM; 0.5 log serial dilutions) for their ability to inhibit the proliferation of OVCAR-3 cells. Cells were grown in ATCC-formulated RPMI-1640 Medium (ATCC 30-2001)+10% FBS. The cells were cultured at 37° C. in a humidified chamber in the presence of 5% CO2. Proliferation assays were conducted over a 72 hour time period.
(§3) Cells were cultured and maintained as described above, with cells always fed on the day prior to assay. Assays were run with a 2 hour compound exposure followed by a washout and then a 72 hour proliferation time or exposed to the test compounds for 72 hours with no washout of compound. DMSO was used as a control in all wells not receiving test compound and DMSO wells were used for plate normalization. Proliferation and survival of cells was quantified based on the amount of total ATP following cell lysis as determined by using a standard assay kit used according to manufacturer's instructions. Experiments were performed in the same media used by each cell type for growth and maintenance. Cells (5×10^4) were plated in 96 well plates for compound exposure. CellTiter-Glo® (Promega Corporation, Madison, Wis. USA) was used to assess the anti-proliferative effects of the compounds following manufacturer's directions and utilizing the reagents supplied with the CellTiter-Glo® kit.

[3] = molecular target: T1, CDK7 (Homo sapiens, UniProt P50613); assay: Radiometric kinase assay (33PanQinase); assay type: biochemical; conditions: read-out: Inhibition of CDK Activity (molar inhibition in a radiometric assay)
T1 construct: either as full-length or enzymatically active fragments; purchased ProQinase GmbH (Reaction Biology); host or cells: Sf9 insect cells or E. coli
Description: (§4) The compounds 1-5 (see Table 1) were assayed for kinase activity at ProQinase (ProQinase GmbH, Reaction Biology; Freiburg, Germany) using their commercially available radiometric kinase assay services. Briefly, the compounds were provided as solids and were dissolved to 1×10^−03 M/100% DMSO stock solutions on the day of assay. All protein kinases were provided by ProQinase and were expressed in Sf9 insect cells or in E. coli as recombinant GST-fusion proteins or His-tagged proteins, either as full-length or enzymatically active fragments. All kinases were produced from human cDNAs and purified by either GSH-affinity chromatography or immobilized metal. The purity of the protein kinases was examined by SDS-PAGE/Coomassie staining, the identity was checked by mass spectroscopy. A radiometric protein kinase assay (^33PanQinase® Activity Assay) was used for measuring the kinase activity of the protein kinase. All kinase assays were performed in 96-well FlashPlates™ from PerkinElmer (Boston, Mass., USA) in a 50 microliter reaction volume. The reaction cocktail was pipetted in four steps in the following order: 1) 25 microliter of assay buffer (standard buffer/[gamma-^33P]-ATP); 2) 10 microliter of ATP solution (in H2O); 3) 5 microliter of test compound (in 10% DMSO); 4) 10 microliter of enzyme/substrate mixture.
(§5) As a parameter for assay quality, the Z′-factor (Zhang et al., J. Biomol. Screen. 2: 67-73, 1999) for the low and high controls of each assay plate (n=8) was used. ProQinase's criterion for repetition of an assay plate is a Z′-factor below 0.4.

[4] = molecular target: T2, CDK12 (Homo sapiens, UniProt Q9NYV4); assay: Radiometric kinase assay (33PanQinase); assay type: biochemical; conditions: read-out: Inhibition of CDK Activity (molar inhibition in a radiometric assay)
T2 construct: either as full-length or enzymatically active fragments; purchased ProQinase GmbH (Reaction Biology)
Description: as §4, §5

[5] = molecular target: T3, CDK9 (Homo sapiens, UniProt P50750); assay: Radiometric kinase assay (33PanQinase); assay type: biochemical; conditions: read-out: Inhibition of CDK Activity (molar inhibition in a radiometric assay)
T3 construct: either as full-length or enzymatically active fragments; purchased ProQinase GmbH (Reaction Biology); host or cells: Sf9 insect cells or E. coli
Description: as §4, §5

[6] = molecular target: T4, CDK13 (Homo sapiens, UniProt Q14004); assay: Radiometric kinase assay (33PanQinase); assay type: biochemical; conditions: read-out: Inhibition of CDK Activity (molar inhibition in a radiometric assay)
T4 construct: either as full-length or enzymatically active fragments; purchased ProQinase GmbH (Reaction Biology)
Description: as §4, §5

[7] = molecular target: T5, CDK2 (Homo sapiens, UniProt P24941); assay: Radiometric kinase assay (33PanQinase); assay type: biochemical; conditions: read-out: Inhibition of CDK Activity (molar inhibition in a radiometric assay)
T5 construct: either as full-length or enzymatically active fragments; purchased ProQinase GmbH (Reaction Biology); host or cells: Sf9 insect cells or E. coli
Description: as §4, §5

[8] = tested on: HCC70 cells; assay: HCC70 cell proliferation (CellTiter-Glo); assay type: cell-based; conditions: Homo sapiens, read-out: Inhibition of Proliferation of HCC70 Cells (IC50 in M)
Description: HCC70 was the cell line used as a model of triple-negative breast cancer (TNBC). This cell line was obtained from ATCC and was initiated from a primary ductal carcinoma in 1992 (Catalog #CRL-2315; mammary gland primary ductal carcinoma). The HCC-70 tumor cell line was maintained in vitro as a monolayer culture in RPMI-1640 medium supplemented with 10% heat inactivated fetal bovine serum at 37° C. in an atmosphere of 5% CO2 in air.
as §2, with “Representative compounds” for “Compounds 1-5”, “HCC70” for “OVCAR-3”
as §3

[9] = tested on: RNA polymerase II; assay: Ex vivo RNA polymerase II phosphorylation (pS2/S2) in cynomolgus PBMCs; assay type: cell-based; conditions: Macaca fascicularis, PBMC; moPBMCs, 2 hours
Description: as §1

[10] = OVCAR-3 (no washout), exposed for 72 hours
[11] = OVCAR-3 (w/washout), 2 hour exposure, washout, 72 hour proliferation
[12] = HCC70 (no washout), exposed for 72 hours
[13] = HCC70 (w/washout), 2 hour exposure, washout, 72 hour proliferation

T1 sequence (P50613 whole entry, the tested form may be a part): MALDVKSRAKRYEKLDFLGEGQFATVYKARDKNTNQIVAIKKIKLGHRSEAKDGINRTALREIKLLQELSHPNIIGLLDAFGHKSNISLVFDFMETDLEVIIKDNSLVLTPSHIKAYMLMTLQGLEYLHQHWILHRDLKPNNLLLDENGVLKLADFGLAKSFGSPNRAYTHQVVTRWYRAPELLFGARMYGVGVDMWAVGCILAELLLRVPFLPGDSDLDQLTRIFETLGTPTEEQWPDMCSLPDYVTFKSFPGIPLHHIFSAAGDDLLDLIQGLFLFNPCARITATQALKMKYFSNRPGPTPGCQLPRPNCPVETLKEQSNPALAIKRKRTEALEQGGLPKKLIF
T1 sequence (P51946 whole entry partner, the tested form may be a part): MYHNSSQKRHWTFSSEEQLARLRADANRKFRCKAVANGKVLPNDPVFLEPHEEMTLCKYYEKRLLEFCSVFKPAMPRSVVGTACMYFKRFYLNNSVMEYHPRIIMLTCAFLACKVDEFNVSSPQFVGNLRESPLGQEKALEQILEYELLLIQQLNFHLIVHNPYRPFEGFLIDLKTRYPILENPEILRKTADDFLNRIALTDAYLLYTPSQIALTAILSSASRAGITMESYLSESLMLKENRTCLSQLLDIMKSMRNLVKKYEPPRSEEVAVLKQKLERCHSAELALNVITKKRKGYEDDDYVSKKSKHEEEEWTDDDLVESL
T1 sequence (P51948 whole entry partner, the tested form may be a part): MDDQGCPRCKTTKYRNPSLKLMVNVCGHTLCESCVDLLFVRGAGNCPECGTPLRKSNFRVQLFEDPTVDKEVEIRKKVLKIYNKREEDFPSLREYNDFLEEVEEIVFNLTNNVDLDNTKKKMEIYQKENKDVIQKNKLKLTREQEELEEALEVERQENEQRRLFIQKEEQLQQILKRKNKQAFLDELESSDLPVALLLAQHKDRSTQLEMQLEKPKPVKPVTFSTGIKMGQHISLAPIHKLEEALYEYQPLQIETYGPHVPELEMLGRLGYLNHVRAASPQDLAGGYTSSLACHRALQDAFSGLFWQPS
T4 sequence (Q14004 whole entry, the tested form may be a part): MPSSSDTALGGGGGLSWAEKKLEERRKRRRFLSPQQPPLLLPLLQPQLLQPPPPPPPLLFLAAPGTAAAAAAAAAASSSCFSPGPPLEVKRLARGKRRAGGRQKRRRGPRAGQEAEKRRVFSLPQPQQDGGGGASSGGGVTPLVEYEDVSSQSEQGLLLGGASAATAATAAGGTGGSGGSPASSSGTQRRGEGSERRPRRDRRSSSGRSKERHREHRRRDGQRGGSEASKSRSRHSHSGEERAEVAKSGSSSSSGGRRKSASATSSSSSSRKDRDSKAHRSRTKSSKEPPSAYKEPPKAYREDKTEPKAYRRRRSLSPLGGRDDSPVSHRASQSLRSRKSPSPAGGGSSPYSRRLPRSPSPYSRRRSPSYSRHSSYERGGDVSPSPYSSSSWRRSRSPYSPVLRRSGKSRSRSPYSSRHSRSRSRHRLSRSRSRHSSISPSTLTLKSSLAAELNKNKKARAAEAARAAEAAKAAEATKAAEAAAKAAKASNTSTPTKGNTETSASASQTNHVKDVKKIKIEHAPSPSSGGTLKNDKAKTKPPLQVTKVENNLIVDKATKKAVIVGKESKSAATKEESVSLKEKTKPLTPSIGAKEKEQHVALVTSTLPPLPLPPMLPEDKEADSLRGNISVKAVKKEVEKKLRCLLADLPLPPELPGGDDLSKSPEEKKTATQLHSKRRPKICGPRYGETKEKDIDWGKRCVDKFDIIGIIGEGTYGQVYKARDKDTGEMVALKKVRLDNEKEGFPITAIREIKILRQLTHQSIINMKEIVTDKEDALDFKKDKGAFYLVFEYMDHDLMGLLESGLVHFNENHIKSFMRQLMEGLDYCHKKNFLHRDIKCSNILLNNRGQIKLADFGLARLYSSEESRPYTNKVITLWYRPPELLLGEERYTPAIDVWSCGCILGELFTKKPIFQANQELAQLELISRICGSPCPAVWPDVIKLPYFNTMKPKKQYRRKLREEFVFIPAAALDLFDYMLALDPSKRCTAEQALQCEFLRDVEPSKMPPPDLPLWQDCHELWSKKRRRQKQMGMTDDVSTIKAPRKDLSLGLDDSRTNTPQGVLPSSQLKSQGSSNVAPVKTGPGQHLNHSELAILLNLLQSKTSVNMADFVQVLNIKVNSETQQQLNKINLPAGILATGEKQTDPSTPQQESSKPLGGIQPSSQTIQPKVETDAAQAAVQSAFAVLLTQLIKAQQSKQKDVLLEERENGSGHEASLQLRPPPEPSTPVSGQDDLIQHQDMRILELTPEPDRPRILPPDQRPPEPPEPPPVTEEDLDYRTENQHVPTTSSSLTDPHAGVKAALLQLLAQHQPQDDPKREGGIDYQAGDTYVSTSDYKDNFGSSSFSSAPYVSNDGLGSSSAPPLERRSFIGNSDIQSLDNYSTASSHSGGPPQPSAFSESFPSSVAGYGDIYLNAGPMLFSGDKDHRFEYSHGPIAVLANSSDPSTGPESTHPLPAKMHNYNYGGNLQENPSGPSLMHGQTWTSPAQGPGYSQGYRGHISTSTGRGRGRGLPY
T4 sequence (O75909 whole entry partner, the tested form may be a part): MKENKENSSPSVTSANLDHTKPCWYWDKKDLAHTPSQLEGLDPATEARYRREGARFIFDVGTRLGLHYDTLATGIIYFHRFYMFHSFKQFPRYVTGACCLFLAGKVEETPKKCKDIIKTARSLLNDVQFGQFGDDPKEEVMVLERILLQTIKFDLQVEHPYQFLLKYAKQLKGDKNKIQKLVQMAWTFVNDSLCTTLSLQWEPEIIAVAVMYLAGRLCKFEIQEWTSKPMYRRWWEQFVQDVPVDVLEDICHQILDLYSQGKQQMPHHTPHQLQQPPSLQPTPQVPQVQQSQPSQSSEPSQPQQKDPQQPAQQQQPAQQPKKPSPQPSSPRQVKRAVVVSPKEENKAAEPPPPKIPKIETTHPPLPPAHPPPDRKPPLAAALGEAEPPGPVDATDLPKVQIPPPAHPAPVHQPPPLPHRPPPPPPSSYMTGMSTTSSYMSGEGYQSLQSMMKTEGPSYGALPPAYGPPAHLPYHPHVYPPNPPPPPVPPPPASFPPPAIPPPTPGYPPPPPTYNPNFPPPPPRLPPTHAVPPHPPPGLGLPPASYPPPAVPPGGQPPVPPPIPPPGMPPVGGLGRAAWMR
T3 sequence (P50750 whole entry, the tested form may be a part): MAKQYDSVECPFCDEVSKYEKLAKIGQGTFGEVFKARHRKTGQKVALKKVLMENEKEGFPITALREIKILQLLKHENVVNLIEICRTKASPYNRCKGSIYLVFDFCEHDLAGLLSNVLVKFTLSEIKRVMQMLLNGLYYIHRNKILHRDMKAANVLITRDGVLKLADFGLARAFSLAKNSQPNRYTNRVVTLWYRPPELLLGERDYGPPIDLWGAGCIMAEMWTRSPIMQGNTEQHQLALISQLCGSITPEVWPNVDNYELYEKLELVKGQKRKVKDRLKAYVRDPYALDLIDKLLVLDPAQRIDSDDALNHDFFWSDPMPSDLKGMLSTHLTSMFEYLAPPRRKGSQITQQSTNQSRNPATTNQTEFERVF
T3 sequence (O60563 whole entry partner, the tested form may be a part): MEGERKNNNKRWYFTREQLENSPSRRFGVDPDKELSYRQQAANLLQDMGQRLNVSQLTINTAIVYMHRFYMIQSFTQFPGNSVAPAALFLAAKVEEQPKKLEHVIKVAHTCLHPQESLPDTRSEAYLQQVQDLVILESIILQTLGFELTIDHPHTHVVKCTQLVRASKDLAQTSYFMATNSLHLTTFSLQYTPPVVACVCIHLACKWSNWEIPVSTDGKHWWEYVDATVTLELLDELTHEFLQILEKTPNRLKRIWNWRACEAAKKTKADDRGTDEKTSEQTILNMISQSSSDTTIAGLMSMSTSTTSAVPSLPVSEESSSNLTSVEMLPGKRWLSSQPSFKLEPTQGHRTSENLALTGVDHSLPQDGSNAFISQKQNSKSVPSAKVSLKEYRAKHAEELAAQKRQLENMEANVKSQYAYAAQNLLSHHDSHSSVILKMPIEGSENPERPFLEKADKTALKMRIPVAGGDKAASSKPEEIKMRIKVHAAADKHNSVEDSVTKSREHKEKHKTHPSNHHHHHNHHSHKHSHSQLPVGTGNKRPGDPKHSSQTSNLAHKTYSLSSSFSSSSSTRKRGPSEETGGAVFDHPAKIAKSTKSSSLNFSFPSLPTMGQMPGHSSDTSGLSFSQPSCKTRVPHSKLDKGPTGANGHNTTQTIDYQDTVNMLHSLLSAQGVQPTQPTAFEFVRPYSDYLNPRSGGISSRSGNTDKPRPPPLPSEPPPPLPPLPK

| Compound | IC50 [1] | IC50 [2, 10] | IC50 [2, 11] | IC50 [3] | IC50 [4] | IC50 [5] | IC50 [6] | IC50 [7] | IC50 [8, 12] | IC50 [8, 13] | IC50 [9] |
| --- | --- | --- | --- | --- | --- | --- | --- | --- | --- | --- | --- |
| C=CC(=O)Nc1ccc(C(=O)N2CC[C@@H](Nc3ncc(Cl)c(OC)n3)C2)cc1 [Compound 1, (R)-N-(4-(3-((5-chloro-4-methoxypyrimidin-2-yl)amino)pyrrolidine-1-carbonyl)phenyl)acrylamide] | 19.3 nM | 4.45 nM | 82.4 nM | 1100 nM | 21.3 nM | 288 nM | 25.8 nM | 1150 nM | 5.1 nM | 14.1 nM | 21.6 nM |
| C=CC(=O)Nc1ccc(C(=O)N2CC[C@@H](Nc3ncc(C#N)cn3)C2)cc1 [Compound 4, (R)-N-(4-(3-((5-cyanopyrimidin-2-yl)amino)pyrrolidine-1-carbonyl)phenyl)acrylamide] | 167 nM | 31 nM | 179 nM | 6960 nM | 131 nM | 3970 nM | 293 nM | 7550 nM | 32.3 nM | 134 nM | 181 nM |
